Legend:
[1] = The drug is tested on Z-020 corresponding to rabbit gut metagenome with ENA study accession number: PRJEB37062 and ENA sample accession number: ERS12561819 for biotransformation under anaerobic condition. The drug concentrations were measured over 9 timepoints collected between 0 and 24 hours of incubation by liquid-chromatography-coupled mass spectrometry (LC–MS); details: 2 µM
[2] = The drug is tested on WLS-090 corresponding to human gut metagenome with ENA study accession number: PRJEB37062 and ENA sample accession number: ERS12561753 for biotransformation under anaerobic condition. The drug concentrations were measured over 9 timepoints collected between 0 and 24 hours of incubation by liquid-chromatography-coupled mass spectrometry (LC–MS); details: 2 µM
[3] = human gut metagenome, 24 h, 2 µM
[4] = The drug is tested on Z-027 corresponding to metagenome with ENA study accession number: PRJEB37062 and ENA sample accession number: ERS12561826 for biotransformation under anaerobic condition. The drug concentrations were measured over 9 timepoints collected between 0 and 24 hours of incubation by liquid-chromatography-coupled mass spectrometry (LC–MS); details: 2 µM
[5] = The drug is tested on Z-023 corresponding to metagenome with ENA study accession number: PRJEB37062 and ENA sample accession number: ERS12561822 for biotransformation under anaerobic condition. The drug concentrations were measured over 9 timepoints collected between 0 and 24 hours of incubation by liquid-chromatography-coupled mass spectrometry (LC–MS); details: 2 µM
[6] = The drug is tested on WLS-027 corresponding to human gut metagenome with ENA study accession number: PRJEB37062 and ENA sample accession number: ERS12561744 for biotransformation under anaerobic condition. The drug concentrations were measured over 9 timepoints collected between 0 and 24 hours of incubation by liquid-chromatography-coupled mass spectrometry (LC–MS); details: 2 µM
[7] = The drug is tested on WLS-052 corresponding to human gut metagenome with ENA study accession number: PRJEB37062 and ENA sample accession number: ERS12561747 for biotransformation under anaerobic condition. The drug concentrations were measured over 9 timepoints collected between 0 and 24 hours of incubation by liquid-chromatography-coupled mass spectrometry (LC–MS); details: 2 µM
[8] = The drug is tested on WLS-073 corresponding to human gut metagenome with ENA study accession number: PRJEB37062 and ENA sample accession number: ERS12561749 for biotransformation under anaerobic condition. The drug concentrations were measured over 9 timepoints collected between 0 and 24 hours of incubation by liquid-chromatography-coupled mass spectrometry (LC–MS); details: 2 µM
[9] = The drug is tested on WLS-098 corresponding to human gut metagenome with ENA study accession number: PRJEB37062 and ENA sample accession number: ERS12561754 for biotransformation under anaerobic condition. The drug concentrations were measured over 9 timepoints collected between 0 and 24 hours of incubation by liquid-chromatography-coupled mass spectrometry (LC–MS); details: 2 µM
[10] = human gut metagenome, 24 h, 2 µM; remark: listed apart in the source
[11] = The drug is tested on Z-012 corresponding to metagenome with ENA study accession number: PRJEB37062 and ENA sample accession number: ERS12561812 for biotransformation under anaerobic condition. The drug concentrations were measured over 9 timepoints collected between 0 and 24 hours of incubation by liquid-chromatography-coupled mass spectrometry (LC–MS); details: 2 µM
[12] = The drug is tested on Z-001 corresponding to mouse gut metagenome with ENA study accession number: PRJEB37062 and ENA sample accession number: ERS12561801 for biotransformation under anaerobic condition. The drug concentrations were measured over 9 timepoints collected between 0 and 24 hours of incubation by liquid-chromatography-coupled mass spectrometry (LC–MS); details: 2 µM
[13] = human gut metagenome, 24 h, 2 µM; remark: listed apart in the source
[14] = human gut metagenome, 24 h, 2 µM; remark: listed apart in the source
[15] = human gut metagenome, 24 h, 2 µM; remark: listed apart in the source
[16] = human gut metagenome, 24 h, 2 µM; remark: listed apart in the source
[17] = human gut metagenome, 24 h, 2 µM; remark: listed apart in the source
[18] = human gut metagenome, 24 h, 2 µM; remark: listed apart in the source
[19] = The drug is tested on WLS-007 corresponding to human gut metagenome with ENA study accession number: PRJEB37062 and ENA sample accession number: ERS12561742 for biotransformation under anaerobic condition. The drug concentrations were measured over 9 timepoints collected between 0 and 24 hours of incubation by liquid-chromatography-coupled mass spectrometry (LC–MS); details: 2 µM
[20] = The drug is tested on Z-011 corresponding to mouse gut metagenome with ENA study accession number: PRJEB37062 and ENA sample accession number: ERS12561811 for biotransformation under anaerobic condition. The drug concentrations were measured over 9 timepoints collected between 0 and 24 hours of incubation by liquid-chromatography-coupled mass spectrometry (LC–MS); details: 2 µM
Note: call rule not given here.

Structure (SMILES) | Bacterial Biotransformation [1] | Bacterial Biotransformation [2] | Bacterial Biotransformation [3] | Bacterial Biotransformation [4] | Bacterial Biotransformation [5] | Bacterial Biotransformation [6] | Bacterial Biotransformation [7] | Bacterial Biotransformation [8] | Bacterial Biotransformation [9] | Bacterial Biotransformation [10] | Bacterial Biotransformation [11] | Bacterial Biotransformation [12] | Bacterial Biotransformation [13] | Bacterial Biotransformation [14] | Bacterial Biotransformation [15] | Bacterial Biotransformation [16] | Bacterial Biotransformation [17] | Bacterial Biotransformation [18] | Bacterial Biotransformation [19] | Bacterial Biotransformation [20]
CN1CCN(C(=O)O[C@H]2c3nccnc3C(=O)N2c2ccc(Cl)cn2)CC1 [ESZOPICLONE] | Compound NOT metabolized | Compound NOT metabolized | Compound NOT metabolized | Compound NOT metabolized | Compound NOT metabolized | Compound NOT metabolized | Compound NOT metabolized | Compound NOT metabolized | Compound NOT metabolized | Compound NOT metabolized | Compound NOT metabolized | Compound NOT metabolized | Compound NOT metabolized | Compound NOT metabolized | Compound NOT metabolized | Compound NOT metabolized | Compound NOT metabolized | Compound NOT metabolized | Compound NOT metabolized | Compound NOT metabolized
O=C1[C@H](CC[C@H](O)c2ccc(F)cc2)[C@@H](c2ccc(O)cc2)N1c1ccc(F)cc1 [EZETIMIBE] | Compound NOT metabolized | Compound metabolized | Compound NOT metabolized | Compound NOT metabolized | Compound metabolized | Compound NOT metabolized | Compound NOT metabolized | Compound metabolized | Compound metabolized | Compound metabolized | Compound NOT metabolized | Compound NOT metabolized | Compound metabolized | Compound NOT metabolized | Compound NOT metabolized | Compound NOT metabolized | Compound NOT metabolized | Compound NOT metabolized | Compound metabolized | Compound NOT metabolized
O=C1NCC2(CCN(CCc3ccccc3)CC2)O1 [FENSPIRIDE] | Compound NOT metabolized | Compound NOT metabolized | Compound NOT metabolized | Compound NOT metabolized | Compound NOT metabolized | Compound NOT metabolized | Compound NOT metabolized | Compound NOT metabolized | Compound NOT metabolized | Compound NOT metabolized | Compound NOT metabolized | Compound metabolized | Compound NOT metabolized | Compound NOT metabolized | Compound NOT metabolized | Compound NOT metabolized | Compound NOT metabolized | Compound NOT metabolized | Compound NOT metabolized | Compound NOT metabolized

— ChEMBL document CHEMBL5724914, “Linking interpersonal differences in gut microbiota composition and drug biotransformation activity” (2024)
